This is an account of results in patent US12264173B2 (GILEAD SCIENCES, INC., priority 2020, dated 2025).

Like-named read-outs stand apart in the source and are kept apart here.

What all share (type): cell-based
Experiment [1] relates to RSV A2. The experiment can be described thus: RSV NHBE EC50 (RSV A2 antiviral assay in NHBE cells). As to conditions: read-out: RSV NHBE EC50. An outline of the steps: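 Antiviral protection in primary bronchial epithelial cells: RSV A2 (1×10^4.5 tissue culture infectious doses/mL) added right after compound, in 3-fold dilutions at 0.05% DMSO, to 7,500 attached cells per well. Cytopathic loss quantified as CellTiter-Glo luminescence after 4-day incubation at 37 °C.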

Experiment [2] deals with DENV2 replicon. In words: DENV-2 Huh-7 Rep EC50 (replicon luminescence). As to the method: In 384 well plates (Greiner, Cat #781091), compounds were acoustically transferred at 200 nl per well in a 8 compound (4 replicates) or 40 compound dose response format (3 replicates). For all plates tested, Balapiravir, GS-5734 and NITD008 were included as positive inhibition controls alongside 0% inhibition, DMSO-only negative control wells. Following compound addition, Huh-7 cells containing the DENV2 replicon construct were harvested following standard cell culture procedures and were adjusted to a concentration of 1.25E5 cells/mL in cell culture media composed of cDMEM without genticin. 40 μL of the cell stock was then added to each well for a final cell density of 5,000 cells/well. Cell and compound mixtures were incubated at 37° C./5% CO2 for 48 hours. Prior to harvesting cells, EnduRen Live Cell Substrate (Promega, Cat #E6481) was prepared by suspending 3.4 mg into 100 uL of DMSO to generate a 60 mM stock solution. The stock solution was then diluted 1:200 in pre-warmed cDMEM and 10 uL of this diluted solution was added to each well of the 384 well plates. Plates were then centrifuged at 500 rpm briefly and were placed on a plate shaker for 2 min. Following mixing, plates were incubated at […] for 1.5 hours prior to measuring luminescence on an Envision luminometer.
(In general: A replicon is a self-replicating genome or part of one, used to study replication in cells.)

For experiment [3], the system named is RSV strain A2. In words: microbe, parasite or virus in culture. As to conditions: read-out: RSV HEp-2 EC50. An outline of the steps:
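Cytopathic-effect protection assay: HEp-2 cells (50,000/mL) infected with pre-titered RSV A2 onto 3-fold serial compound dilutions, incubated 4 days at 37° C. Cell viability read by CellTiter-Glo luminescence; percent inhibition derived against 0% and 100% virus-inhibition controls.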

Setting [4] is: human respiratory syncytial virus, NHBE, 96 h, Table 3, NHBE cells, RSV A2, 4 days.
Setting [5] is: human respiratory syncytial virus, NHBE, Table 5 comparative activity, 2',3'-OH vs -OC(O)iPr.
Setting [6] is: Dengue virus, DENV2, Huh-7, 48 h, read-out: DENV-2 REP Huh7 EC50.
Setting [7] is: Dengue virus, DENV2, Huh-7, read-out: DENV Rep EC50.
Setting [8] is: human respiratory syncytial virus, HEp-2, 96 h, Table 3, HEp-2 cells, RSV A2, 4 days.
[9] abbreviates: human respiratory syncytial virus, HEp-2, Table 5 comparative activity, 2',3'-OH vs -OC(O)iPr.
Where [10] appears, read: Table 3, NHBE cells, RSV A2, 4 days.
[11] abbreviates: Table 3, Huh-7 DENV2 replicon cells, 48 hours, read-out: DENV-2 REP Huh7 EC50.
The mark [12] stands for this setting: Table 3, HEp-2 cells, RSV A2, 4 days.

What is called EC50 is the concentration that produces a half-maximal response. Take `CC(C)C(=O)O[C@H]1[C@H](c2ccc3c(N)ncnn23)O[C@](C#N)(COP(=O)(N[C@@H](C)C(=O)OCC2CCOCC2)Oc2ccccc2)[C@H]1OC(=O)C(C)C` (mixture of isomers) [Example 181, (2R,3S,4S,5S)-5-(4-aminopyrrolo[2,1-f][1,2,4]triazin-7-yl)-2-cyano-2-((((((S)-1-oxo-1-((tetrahydro-2H-pyran-4-yl)methoxy)propan-2-yl)amino)(phenoxy)phosphoryl)oxy)methyl)tetrahydrofuran-3,4-diyl bis(2-methylpropanoate)]: the EC50 was 30 nM in experiment [1] (setting [4]); 30 nM in experiment [1] (setting [5]); 6630 nM in experiment [2] (setting [6]); 6630 nM in experiment [2] (setting [7]); 84 nM in experiment [3] (setting [8]); 84 nM in experiment [3] (setting [9]).

For `CC(=O)O[C@H]1[C@H](c2ccc3c(N)ncnn23)O[C@](C#N)(COP(=O)(N[C@@H](C)C(=O)OC2CCOCC2)Oc2ccccc2)[C@H]1OC(C)=O` (single isomer, unassigned) [Example 164], the EC50 is 148 nM in experiment [1] (setting [10]), more than 100000 nM in experiment [2] (setting [11]) and 1690 nM in experiment [3] (setting [12]).

Consider `C[C@H](NP(=O)(OC[C@@]1(C#N)O[C@@H](c2ccc3c(N)ncnn23)[C@H](OC(=O)C(C)(C)C)[C@@H]1OC(=O)C(C)(C)C)Oc1ccccc1)C(=O)OC1CCOCC1` (single isomer, unassigned) [Example 172], for which the figures for the EC50 in experiment [1] (setting [10]), in experiment [2] (setting [11]) and in experiment [3] (setting [12]) were 145 nM, 16800 nM and 1100 nM, respectively.

Turning to `CC(C)C(=O)O[C@H]1[C@H](c2ccc3c(N)ncnn23)O[C@](C#N)(COP(=O)(N[C@@H](C)C(=O)OCC(C)(C)O)Oc2ccccc2)[C@H]1OC(=O)C(C)C` (single isomer, unassigned) [Example 257], the EC50 worked out at 24 nM in experiment [1] (setting [10]), 7470 nM in experiment [2] (setting [11]) and 72 nM in experiment [3] (setting [12]).

As for `CC(C)C(=O)O[C@H]1[C@H](c2ccc3c(N)ncnn23)O[C@](C#N)(COP(=O)(N[C@@H](C)C(=O)OCC(C)(C)O)Oc2ccccc2)[C@H]1OC(=O)C(C)C` (single isomer, unassigned) [Example 258], the EC50 in experiment [1] (setting [10]) came out at 34 nM; in experiment [2] (setting [11]) it was 18300 nM; in experiment [3] (setting [12]), 91 nM.

For the compound `CCC(=O)OC1[C@H](c2ccc3c(N)ncnn23)O[C@](C#N)(COP(=O)(N[C@@H](C)C(=O)OCC2CCC2)Oc2ccccc2)[C@H]1OC(=O)CC` (stereo in doubt) [Example 91, (2R,3S,4R,5S)-5-(4-aminopyrrolo[2,1-f][1,2,4]triazin-7-yl)-2-cyano-2-((((((S)-1-(cyclobutylmethoxy)-1-oxopropan-2-yl)amino)(phenoxy)phosphoryl)oxy)methyl) tetrahydrofuran-3,4-diyl dipropionate], the EC50 in experiment [1] (setting [4]) came to 23 nM; in experiment [2] (setting [6]) it was 10200 nM; in experiment [3] (setting [8]), 67 nM.

In the case of `CC(=O)OC1[C@H](c2ccc3c(N)ncnn23)O[C@](C#N)(COP(=O)(N[C@@H](C)C(=O)OCC2CCC2)Oc2ccccc2)[C@H]1OC(C)=O` (stereo in doubt) [Example 94, (2R,3S,4R,5S)-5-(4-aminopyrrolo[2,1-f][1,2,4]triazin-7-yl)-2-cyano-2-((((((S)-1-(cyclobutylmethoxy)-1-oxopropan-2-yl)amino)(phenoxy)phosphoryl)oxy)methyl) tetrahydrofuran-3,4-diyl diacetate], the EC50 in experiment [1] (setting [4]) is 41 nM; in experiment [2] (setting [6]) it was 13700 nM; in experiment [3] (setting [8]), 189 nM.

Turning to `CC(=O)OC1[C@H](c2ccc3c(N)ncnn23)O[C@](C#N)(COP(=O)(N[C@@H](C)C(=O)OCC2CC2)Oc2ccccc2)[C@H]1OC(C)=O` (stereo in doubt) [Example 101, (2R,3S,4R,5S)-5-(4-aminopyrrolo[2,1-f][1,2,4]triazin-7-yl)-2-cyano-2-((((((S)-1-(cyclopropylmethoxy)-1-oxopropan-2-yl)amino)(phenoxy)phosphoryl)oxy)methyl) tetrahydrofuran-3,4-diyl diacetate], the figures for the EC50 in experiment [1] (setting [4]), in experiment [2] (setting [6]) and in experiment [3] (setting [8]) were 19 nM, 25800 nM and 94 nM, respectively.

For `CCC(=O)OC1[C@H](c2ccc3c(N)ncnn23)O[C@](C#N)(COP(=O)(N[C@@H](C)C(=O)OCC2CCN(CC(F)(F)F)CC2)Oc2ccccc2)[C@H]1OC(=O)CC` (stereo in doubt) [Example 115, (2R,3S,4R,5S)-5-(4-aminopyrrolo[2,1-f][1,2,4]triazin-7-yl)-2-cyano-2-((((((S)-1-oxo-1-((1-(2,2,2-trifluoroethyl)piperidin-4-yl)methoxy)propan-2-yl)amino)(phenoxy)phosphoryl)oxy)methyl)tetrahydrofuran-3,4-diyl dipropionate], the EC50 in experiment [1] (setting [4]) worked out at 22 nM; in experiment [2] (setting [6]), 20400 nM; in experiment [3] (setting [8]), 112 nM.

As for `C[C@H](NP(=O)(OC[C@@]1(C#N)O[C@@H](c2ccc3c(N)ncnn23)[C@H](O)[C@@H]1O)Oc1ccccc1)C(=O)OCC1CCOCC1` (stereo partly drawn) [Example 20, (tetrahydro-2H-pyran-4-yl)methyl ((((2R,3S,4R,5S)-5-(4-aminopyrrolo[2,1-f][1,2,4]triazin-7-yl)-2-cyano-3,4-dihydroxytetrahydrofuran-2-yl)methoxy)(phenoxy)phosphoryl)-L-alaninate], the EC50 in experiment [1] (setting [5]) was 2230 nM; in experiment [2] (setting [7]), more than 50000 nM; in experiment [3] (setting [9]), 877 nM.

`CCC(CC)COC(=O)[C@H](C)N[P@](=O)(OC[C@@]1(C#N)O[C@@H](c2ccc3c(N)ncnn23)[C@H](OC(C)=O)[C@@H]1OC(C)=O)Oc1ccccc1` [Example 88, (2R,3S,4S,5S)-5-(4-aminopyrrolo[2,1-f][1,2,4]triazin-7-yl)-2-cyano-2-((((S)-(((S)-1-(2-ethylbutoxy)-1-oxopropan-2-yl)amino)(phenoxy)phosphoryl)oxy)methyl) tetrahydrofuran-3,4-diyl diacetate]: the EC50 came out at 42 nM in experiment [1] (setting [4]), 8820 nM in experiment [2] (setting [6]) and 108 nM in experiment [3] (setting [8]).

Take `CC(=O)O[C@H]1[C@H](c2ccc3c(N)ncnn23)O[C@](C#N)(CO[P@](=O)(N[C@@H](C)C(=O)OCC2CC2)Oc2ccccc2)[C@H]1OC(C)=O` [Example 103]: the results for the EC50 in experiment [1] (setting [10]), in experiment [2] (setting [11]) and in experiment [3] (setting [12]) were 32 nM, 10500 nM and 94 nM, respectively.

Consider `CC(=O)O[C@H]1[C@H](c2ccc3c(N)ncnn23)O[C@](C#N)(CO[P@@](=O)(N[C@@H](C)C(=O)OCC2CCOCC2)Oc2ccccc2)[C@H]1OC(C)=O` [Example 111], for which the results for the EC50 in experiment [1] (setting [10]), in experiment [2] (setting [11]) and in experiment [3] (setting [12]) were 44 nM, more than 100000 nM and 873 nM, respectively.

With `CC(C)OC(=O)[C@H](C)N[P@](=O)(OC[C@@]1(C#N)O[C@@H](c2ccc3c(N)ncnn23)[C@H](OC(=O)C2COC2)[C@@H]1OC(=O)C1COC1)Oc1ccccc1` [Example 160, (2R,3S,4S,5S)-5-(4-aminopyrrolo[2,1-f][1,2,4]triazin-7-yl)-2-cyano-2-((((S)-(((S)-1-isopropoxy-1-oxopropan-2-yl)amino)(phenoxy)phosphoryl)oxy)methyl) tetrahydrofuran-3,4-diyl bis(oxetane-3-carboxylate)], the values for the EC50 in experiment [1] (setting [4]), in experiment [2] (setting [6]) and in experiment [3] (setting [8]) were 860 nM, 37400 nM and 204 nM, respectively.

`CC(C)OC(=O)[C@H](C)NP(=O)(OC[C@@]1(C#N)O[C@@H](c2ccc3c(N)ncnn23)[C@H](OC(=O)C(C)C)[C@@H]1OC(=O)C(C)C)Oc1ccc(C(=O)N(C)C)cc1` (stereo partly drawn) [Example 177, (2R,3S,4S,5S)-5-(4-Aminopyrrolo[2,1-f][1,2,4]triazin-7-yl)-2-cyano-2-((((4-(dimethylcarbamoyl)phenoxy)(((S)-1-isopropoxy-1-oxopropan-2-yl)amino)phosphoryl)oxy)methyl)tetrahydrofuran-3,4-diyl bis(2-methylpropanoate)]: the EC50 in experiment [1] (setting [4]) stood at 49 nM; in experiment [2] (setting [6]), 27200 nM; in experiment [3] (setting [8]) it was 120 nM.
